Several values for one entry are separate records, joined by “and”; a condition that tells them apart may be missing. Identical values can stand only once.
Experiments:
[1] = Nerve conduction studies in two patients with grade 3 polyneuropathy; conditions: for MAP Amplitude Percent Decrement / MAP Amplitude Lowest on Taxol: Motor; for SAP Amplitude Percent Decrement / SAP Amplitude Lowest on Taxol: Sensory
Procedure: In two of these patients who developed clinical evidence of neuropathy, the studies were repeated on three occasions in case 1 and once in case 2. In all 12 patients, maximal motor and sensory conduction velocities and response amplitudes were recorded for the median or ulnar nerve in the upper limb and for the peroneal and sural nerves in the lower limb.

[2] = system: epithelial ovarian cancer; assay: Phase I taxol dose escalation with G-CSF support: disease response; type: in vivo, human
Procedure: Patients with histologically proven epithelial ovarian cancer with bidimensionally measurable disease were candidates for the study.
All patients received subsequent cycles of therapy on the general medical oncology in-patient ward.
A G-CSF dose of 10 μg/kg/day was used. […] This was determined by checking WBC and platelet counts on a twice weekly basis.
Patients who had normalization of serum CA-125 levels and complete resolution of all assessable disease confirmed at peritoneoscopy Were assessed as having a clinical complete response to therapy (CCR). A partial response (PR) was designated for individuals experiencing a greater than 50% reduction in the sum of the products of the greatest perpendicular diameters of all measurable lesions that lasted at least one month. A minor response (MR) was defined as a greater than 25% but less than 50% reduction in the sum of the products of the greatest perpendicular diameters of all measurable lesions lasting at least one month. Patients with a less than 25% reduction in tumor volume after two cycles of therapy were considered to be nonresponders and were taken off therapy. Patients who experienced greater than 25% reduction in tumor volume and/or a more than 50% reduction in CA-125 level received two cycles beyond maximal response. Patients with CCR received two cycles beyond peritoneoscopy.

[3] = system: recurrent advanced stage epithelial ovarian cancer; assay: Phase II dose intense taxol with G-CSF support: disease response and survival; type: in vivo, human
Source text: A total of 47 patients were included in this study. All patients had recurrent advanced stage epithelial ovarian cancer confirmed on histologic review at the Laboratory of Pathology, National Cancer Institute (NCI). Borderline, mixed, and germ cell histologies were excluded.
A complete response (CR) was defined as patients having a complete resolution of disease as determined by both physical and radiographic examination as well as normalization of CA-125 lasting at least 4 weeks. A partial response (PR) patient was defined as having a greater than 50% reduction in the sum of the products of bidimensional measurements of all sites of disease as determined by both physical and radiographic analysis which lasted at least 4 weeks, and wherein no development of new lesions was observed. A minor response (MR) patient was defined as having greater than 25% but less than 50% reduction in the sum of the products of the perpendicular diameters of all measurable lesions and wherein no new sites of disease were observed. A stable disease (SD) was defined as patients having less than a 25% increase or less than a 25% reduction in sum of the product of the perpendicular diameters of all measurable lesions in response to therapy, without development of new lesions, for at least 4 weeks. Progressive disease (PD) was defined as patients having an increase of at least 25% in the sum of the products of the perpendicular diameters of all measurable lesions and/or the development of new lesions.
CA-125 levels were followed in all patients but were not used to define a patient's response except in one situation.

ovarian cancer = assay: Published studies of taxol without G-CSF: response rate; type: in vivo, human; conditions: 33 of 110 patients
Source text: This agent is derived from the bark of the Western Yew tree, taxus brevifolia (Chabner, PPO Update, 5 (9), 1-10 (1991); Rowinsky et al., J. Nat'Cancer Inst., 82, 1247-1259 (1990)).

[4] = in vivo; cited from earlier work
[5] = Totals, all dose levels 170-300 mg/m^2, 14 patients assessable
[6] = Totals, all dose levels 170-300 mg/m^2, 14 patients assessable, listed as taxol
[7] = taxol 170 mg/m^2, 2 patients assessable
[8] = taxol 200 mg/m^2, 3 patients assessable
[9] = taxol 250 mg/m^2, 6 patients assessable
[10] = taxol 300 mg/m^2, 3 patients assessable
[11] = dose intense taxol with G-CSF, 44 assessable patients
[12] = dose intense taxol with G-CSF, 44 assessable patients, listed as taxol
[13] = nineteen patients treated until CR or progression

CC(=O)O[C@H]1C(=O)[C@@]2(C)[C@H]([C@H](OC(=O)c3ccccc3)[C@]3(O)C[C@H](OC(=O)[C@H](O)[C@@H](NC(=O)c4ccccc4)c4ccccc4)C(C)=C1C3(C)C)[C@]1(OC(C)=O)CO[C@@H]1C[C@@H]2O [Taxol, taxol]
MAP Amplitude Percent Decrement ([1]; Median nerve, case 2): None | MAP Amplitude Lowest on Taxol ([1]; Median nerve, case 2, control 10.5 mV): 10.8 mV | MAP Amplitude Percent Decrement ([1]; Peroneal nerve, case 1): 49% | MAP Amplitude Lowest on Taxol ([1]; Peroneal nerve, case 1, control 3.9 mV): 1.9 mV | MAP Amplitude Percent Decrement ([1]; Peroneal nerve, case 2): None | MAP Amplitude Lowest on Taxol ([1]; Peroneal nerve, case 2, control 2.7 mV): 2.7 mV | MAP Amplitude Percent Decrement ([1]; Ulnar nerve, case 1): None | MAP Amplitude Lowest on Taxol ([1]; Ulnar nerve, case 1, control 6.9 mV): 7.1 mV | SAP Amplitude Percent Decrement ([1]; Median nerve, case 2): 13% | SAP Amplitude Lowest on Taxol ([1]; Median nerve, case 2, control 69 μV): 60 μV | SAP Amplitude Percent Decrement ([1]; Sural nerve, case 1): 75% | SAP Amplitude Lowest on Taxol ([1]; Sural nerve, case 1, control 8 μV): 2 μV | SAP Amplitude Percent Decrement ([1]; Sural nerve, case 2): 44% | SAP Amplitude Lowest on Taxol ([1]; Sural nerve, case 2, control 32 μV): 18 μV | SAP Amplitude Percent Decrement ([1]; Ulnar nerve, case 1): 62% | SAP Amplitude Lowest on Taxol ([1]; Ulnar nerve, case 1, control 19 μV): 6 μV | Patients with an objective response to therapy ([2]; Five of 14 assessable patients, all dose levels): 36% | No. CCR (clinical complete response) [2, 5]: 1 | No. MR (minor response) [2, 5]: 5 | No. NR (no response; progressive disease on therapy) [2, 5]: 4 | No. PR (partial response) [2, 5]: 4 | No. CCR (clinical complete response) [2, 6]: one | No. MR (minor response) [2, 6]: Five | No. NR (no response; progressive disease on therapy) [2, 6]: Four | No. PR (partial response) [2, 6]: four | Reductions in tumor mass in patients with a minor response ([2]; five patients): 30% to 46% | Response durations for PR ([2]; phase I, individual PR patients): 30 weeks and ≥ 25 weeks and ≥ 23 weeks and 11 weeks | Response duration for CCR ([2]; phase I, the one CCR patient): ≥ 30 weeks | No. NR (no response) [2, 7]: 1 | No. PR (partial response) [2, 7]: 1 | No. CCR (clinical complete response) [2, 8]: 1 | No. MR (minor response) [2, 8]: 1 | No. NR (no response) [2, 8]: 1 | No. MR (minor response) [2, 9]: 3 | No. NR (no response) [2, 9]: 2 | No. PR (partial response) [2, 9]: 2 | No. MR (minor response) [2, 10]: 1 | No. PR (partial response) [2, 10]: 2 | Overall objective response rate ([3]; 21/44, 95% CI: 33-63%, taxol 250 mg/m^2/21 days with G-CSF): 48% | Survival at one year ([3]; 95% confidence interval, 25-67%): 45.3% | Median survival time ([3]; Kaplan-Meier, phase II): 11.5 months | CR, % of Cohort [3, 11]: 14% | CR, No. of Patients [3, 11]: 6 | MR, % of Cohort [3, 11]: 11% | MR, No. of Patients [3, 11]: 5 | NR, % of Cohort [3, 11]: 25% | NR, No. of Patients [3, 11]: 11 | PR, % of Cohort [3, 11]: 34% | PR, No. of Patients [3, 11]: 15 | CR, No. of Patients [3, 12]: Six | MR, No. of Patients [3, 12]: five | PR, No. of Patients [3, 12]: Fifteen | Median number of cycles required to reach an objective response [3, 13]: four | Number of cycles required to reach an objective response, range [3, 13]: two to eight | Objective response rate ([3]; taxol about 250 mg/m^2/ 21 days): about 50% | Increase in the response rate versus standard dose ([3]; taxol about 250 mg/m^2/ 21 days vs standard dose): 67% | Response rate, three combined studies (ovarian cancer): 30% | Taxol dosage level above which severe neurotoxicity (peripheral neuropathy) is experienced [4]: above 300 mg/m^2/ 21 days

Source: patent USRE38424E1 (The United States of America as represented by the …, priority 1994, dated 2004)
